Results taken from ChEMBL document CHEMBL1201862, “PubChem BioAssay data set” (2004).
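Grown in 96-well plates, cells were treated for 48 hours with each compound at five concentrations. Insufficient inhibition: endpoint recorded as highest concentration tested. GI50: concentration for 50% inhibition of growth.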 Activity calls are given as the source filed them. No stated cut-off is given here; in the data, active = GI50 up to about 1.1 µM and inactive = higher.

Columns and labels:
Assay in all cases: DTP human tumour cell line panel, 48 h
A498 = system: A498
IGROV-1 = system: IGROV-1
CCRF-CEM = system: CCRF-CEM
SR = system: SR
SNB-78 = system: SNB-78
KM12 = system: KM12
UACC-257 = system: UACC-257
DMS-114 = system: DMS-114
M14 = system: M14
EKVX = system: EKVX
NCI-H23 = system: NCI-H23
SK-OV-3 = system: SK-OV-3
HOP-62 = system: HOP-62
HCT-116 = system: HCT-116
NCI-H460 = system: NCI-H460
NCI-H522 = system: NCI-H522
OVCAR-8 = system: OVCAR-8
HOP-92 = system: HOP-92
U-251 = system: U-251
RXF 631 = system: RXF 631
SNB-19 = system: SNB-19
TK-10 = system: TK-10
OVCAR-5 = system: OVCAR-5
HT-29 = system: HT-29
RXF 393 = system: RXF 393
UO-31 = system: UO-31
UACC-62 = system: UACC-62
MOLT-4 = system: MOLT-4
HL-60 = system: HL-60
ACHN = system: ACHN
DMS-273 = system: DMS-273
A549 = system: A549
M19-MEL = system: M19-MEL
SK-MEL-28 = system: SK-MEL-28
SF-295 = system: SF-295
KM-20L2 = system: KM-20L2
SK-MEL-2 = system: SK-MEL-2
SN12C = system: SN12C
SF-539 = system: SF-539
SW-620 = system: SW-620
CAKI-1 = system: CAKI-1
OVCAR-4 = system: OVCAR-4
786-0 = system: 786-0
SF-268 = system: SF-268
RPMI-8226 = system: RPMI-8226
SNB-75 = system: SNB-75
SK-MEL-5 = system: SK-MEL-5
LXFL 529 = system: LXFL 529
HCT-15 = system: HCT-15
NCI-H226 = system: NCI-H226
OVCAR-3 = system: OVCAR-3
COLO 205 = system: COLO 205
LOX IMVI = system: LOX IMVI
HCC 2998 = system: HCC 2998
Malme-3M = system: Malme-3M
K562 = system: K562
DLD-1 = system: DLD-1
HOP-18 = system: HOP-18
XF498 = system: XF498

Measured: GI50

CCN(CC)CSc1nc2ccccc2o1
inactive: A498 > 100 µM | IGROV-1 > 100 µM | CCRF-CEM > 100 µM | SR > 100 µM | SNB-78 > 100 µM | KM12 > 100 µM | UACC-257 > 100 µM | DMS-114 > 100 µM | M14 > 100 µM | EKVX > 100 µM | NCI-H23 > 100 µM | SK-OV-3 > 100 µM | HOP-62 > 100 µM | HCT-116 > 100 µM | NCI-H460 > 100 µM | NCI-H522 > 100 µM | OVCAR-8 > 100 µM | HOP-92 > 100 µM | U-251 > 100 µM | RXF 631 > 100 µM | SNB-19 > 100 µM | TK-10 > 100 µM | OVCAR-5 > 100 µM | HT-29 > 100 µM | RXF 393 > 100 µM | UO-31 > 100 µM | UACC-62 > 100 µM | MOLT-4 > 100 µM | HL-60 > 100 µM | ACHN > 100 µM | DMS-273 > 100 µM | A549 > 100 µM | M19-MEL > 100 µM | SK-MEL-28 > 100 µM | SF-295 > 100 µM

C[Si](C)(C)[C@@]1([Se]c2ccccc2)CC[C@@H]1C(=O)c1ccccc1
45.8 µM: HCT-15
inactive: KM-20L2 71.8 µM | A498 > 100 µM | IGROV-1 > 100 µM | CCRF-CEM 27.7 µM | SK-MEL-2 23.7 µM | SN12C 61.4 µM | SNB-78 > 100 µM | KM12 44.9 µM | SF-539 62.7 µM | UACC-257 40.6 µM | SW-620 53 µM | DMS-114 38.5 µM | M14 80.4 µM | EKVX 49.3 µM | NCI-H23 33.7 µM | SK-OV-3 > 100 µM | CAKI-1 72.1 µM | OVCAR-4 67.9 µM | HOP-62 > 100 µM | HCT-116 33.6 µM | NCI-H460 98.9 µM | NCI-H522 23.7 µM | 786-0 > 100 µM | SF-268 28.8 µM | OVCAR-8 50.5 µM | RPMI-8226 20.1 µM | SNB-75 61 µM | U-251 83.8 µM | SK-MEL-5 18.5 µM | RXF 631 > 100 µM | SNB-19 35.8 µM | LXFL 529 65.6 µM | TK-10 > 100 µM | NCI-H226 40.2 µM | OVCAR-5 > 100 µM | HT-29 42.3 µM | RXF 393 19 µM | UO-31 32.3 µM | UACC-62 71.4 µM | OVCAR-3 84.1 µM | COLO 205 > 100 µM | LOX IMVI 35.9 µM | MOLT-4 21.3 µM | HCC 2998 32.6 µM | Malme-3M 70 µM | K562 34.5 µM | DLD-1 77.4 µM | ACHN 54 µM | DMS-273 59.3 µM | A549 56.2 µM | M19-MEL 32.5 µM | SK-MEL-28 55.2 µM | SF-295 51.3 µM

Cc1cccc(C)c1NC(=O)C1=NC(=S)NC(c2ccccc2)C1c1nc2ccccc2s1 (configuration not stated)
inactive: KM-20L2 > 100 µM | A498 > 100 µM | IGROV-1 > 100 µM | CCRF-CEM > 100 µM | SK-MEL-2 > 100 µM | SN12C > 100 µM | SR > 100 µM | SNB-78 > 100 µM | KM12 > 100 µM | SF-539 > 100 µM | UACC-257 > 100 µM | SW-620 > 100 µM | DMS-114 > 100 µM | M14 > 100 µM | EKVX > 100 µM | NCI-H23 > 100 µM | SK-OV-3 > 100 µM | CAKI-1 > 100 µM | OVCAR-4 > 100 µM | HCT-116 > 100 µM | NCI-H460 > 100 µM | NCI-H522 > 100 µM | 786-0 > 100 µM | SF-268 > 100 µM | OVCAR-8 > 100 µM | SNB-75 > 100 µM | HOP-92 > 100 µM | U-251 > 100 µM | SK-MEL-5 > 100 µM | SNB-19 > 100 µM | LXFL 529 > 100 µM | HOP-18 > 100 µM | XF498 > 100 µM | TK-10 > 100 µM | NCI-H226 > 100 µM | HT-29 > 100 µM | RXF 393 > 100 µM | UO-31 > 100 µM | UACC-62 > 100 µM | OVCAR-3 > 100 µM | COLO 205 > 100 µM | MOLT-4 > 100 µM | HCC 2998 > 100 µM | Malme-3M > 100 µM | K562 > 100 µM | HL-60 > 100 µM | DLD-1 > 100 µM | ACHN > 100 µM | DMS-273 > 100 µM | A549 > 100 µM | M19-MEL > 100 µM | SK-MEL-28 > 100 µM | SF-295 > 100 µM
